Measurements published in EPA's CvTdb concentration-time database.

Legend:
Rat [1] = experiment: concentration in plasma after dosing; details: 7 min; dosed: 2-Methyltetrahydrofuran; 40 mg/kg; iv; Male; Harlan Sprague Dawley
Rat [2] = experiment: concentration in brain after dosing; details: 0.5 h; dosed: 2-Methyltetrahydrofuran; 40 mg/kg; iv; Male; Harlan Sprague Dawley
Rat [3] = experiment: concentration in brain after dosing; details: 7 min; dosed: 2-Methyltetrahydrofuran; 40 mg/kg; iv; Male; Harlan Sprague Dawley
Rat [4] = experiment: concentration in brain after dosing; details: 2 min; dosed: 2-Methyltetrahydrofuran; 40 mg/kg; iv; Male; Harlan Sprague Dawley
Rat [5] = experiment: concentration in plasma after dosing; details: 4 h; dosed: 2-Methyltetrahydrofuran; 40 mg/kg; iv; Male; Harlan Sprague Dawley
Rat [6] = experiment: concentration in brain after dosing; details: 0.75 h; dosed: 2-Methyltetrahydrofuran; 40 mg/kg; iv; Male; Harlan Sprague Dawley
Rat [7] = experiment: concentration in plasma after dosing; details: dosed: 678-39-7, 12 mg/kg, iv, Male, F344
Rat [8] = experiment: concentration in plasma after dosing; details: 5 min; dosed: 678-39-7; 12 mg/kg; iv; Male; F344
Rat [9] = experiment: concentration in plasma after dosing; details: dosed: 678-39-7, 12 mg/kg, iv, Male, F344; remark: listed apart in the source
Rat [10] = experiment: concentration in brain after dosing; details: 1 h; dosed: Fluorotelomer alcohol 8+2; 24 mg/kg; oral; Male; Harlan Sprague Dawley
Rat [11] = experiment: concentration in liver after dosing; details: 6 h; dosed: Fluorotelomer alcohol 8+2; 80 mg/kg; oral; Female; Harlan Sprague Dawley
Rat [12] = experiment: concentration in plasma after dosing; details: dosed: Fluorotelomer alcohol 8+2, 12 mg/kg, oral, Male, Harlan Sprague Dawley
Rat [13] = experiment: concentration in kidney after dosing; details: 6 h; dosed: Fluorotelomer alcohol 8+2; 80 mg/kg; oral; Female; Harlan Sprague Dawley
Rat [14] = experiment: concentration in plasma after dosing; details: 1 h; dosed: Perfluorohexanoic Acid; 40 mg/kg; iv; Female; Harlan Sprague-Dawley
Rat [15] = experiment: concentration in plasma after dosing; details: dosed: Perfluorohexanoic Acid, 40 mg/kg, oral, Male, Harlan Sprague Dawley
Rat [16] = experiment: concentration in liver after dosing; details: 6 h; dosed: Perfluorohexanoic Acid; 80 mg/kg; oral; Female; Harlan Sprague Dawley

CC1CCCO1 (stereo not given) [2-Methyltetrahydrofuran]
Details | concentration in brain [ng/mL] | concentration in plasma [ng/mL]
Rat [1] | – | 53800
Rat [2] | 16200 | –
Rat [3] | 34000 | –
Rat [4] | 34000 | –
Rat [5] | – | 312
Rat [6] | 11300 | –

O=C(O)CCC(F)(F)C(F)(F)C(F)(F)C(F)(F)C(F)(F)C(F)(F)C(F)(F)F [Fluorotelomer acid 7+3]
Details | concentration in plasma [ng/mL]
Rat [7], 1 h | 601
Rat [7], 6 h | 432
Rat [9], 0.75 h | 365
Rat [9], 12 h | 74.1
Rat [12], 0.25 h | 152
Rat [12], 6 h | 522

Details | concentration in brain [ng/g] | concentration in kidney [ng/g] | concentration in liver [ng/g] | concentration in plasma [ng/mL]
Rat [8] | – | – | – | 13.1
Rat [10] | 128 | – | – | –
Rat [11] | – | – | 7770 | –
Rat [13] | – | 3960 | – | –

O=C(O)C(F)(F)C(F)(F)C(F)(F)C(F)(F)C(F)(F)F [Perfluorohexanoic Acid]
Details | concentration in liver [ng/g] | concentration in plasma [ng/mL]
Rat [14] | – | 1240
Rat [16] | 820 | –

Rat [15]
Details | concentration in plasma [ng/mL]
0.5 h | 59900
9 h | 9200
